Results published in PubChem BioAssay AID248 (DTP/NCI, 2004).
Where “and” joins values, the source holds several entries; their conditions need not be identical. Identical values can stand only once. Inconclusive results and toxic doses are left out. Rule as the data show it: active = T/C of 150% or more; inactive = T/C below 125%.

Test system: L1210 leukemia ip in BDF1 mice, survival T/C
Assay: NCI In Vivo Anticancer Drug Screen. Data for tumor model L1210 Leukemia (intraperitoneal) in B6D2F1 (BDF1) mice
Conditions: endpoint: mean survival time, higher = longer survival
Outline: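 Tumor was transplanted into mice, which were then dosed with test compound or vehicle alone. Survival was recorded for each group, and the treated figure was expressed relative to the control figure.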

[1] = dose: 100.0 mg/kg/injection, schedule: Q01DX009 (ip), vehicle: Klucel (hydroxypropylcellulose) (HPC)
[2] = dose: 100.0 mg/kg/injection, schedule: Q04DX002 (ip), vehicle: Klucel (hydroxypropylcellulose) (HPC)
[3] = dose: 200.0 mg/kg/injection, schedule: Q01DX009 (ip), vehicle: Klucel (hydroxypropylcellulose) (HPC)
[4] = dose: 200.0 mg/kg/injection, schedule: Q04DX002 (ip), vehicle: Klucel (hydroxypropylcellulose) (HPC)
[5] = dose: 400.0 mg/kg/injection, schedule: Q01DX009 (ip), vehicle: Klucel (hydroxypropylcellulose) (HPC)
[6] = dose: 400.0 mg/kg/injection, schedule: Q04DX002 (ip), vehicle: Klucel (hydroxypropylcellulose) (HPC)
[7] = dose: 100.0 mg/kg/injection, schedule: Q01DX009 (ip), vehicle: saline with Tween-80
[8] = dose: 100.0 mg/kg/injection, schedule: Q04DX003 (ip), vehicle: saline with Tween-80
[9] = dose: 200.0 mg/kg/injection, schedule: Q04DX003 (ip), vehicle: saline with Tween-80
[10] = dose: 400.0 mg/kg/injection, schedule: Q04DX003 (ip), vehicle: saline with Tween-80
[11] = dose: 50.0 mg/kg/injection, schedule: Q01DX009 (ip), vehicle: saline with Tween-80
[12] = dose: 100.0 mg/kg/injection, schedule: Q04DX003 (ip), vehicle: saline
[13] = dose: 200.0 mg/kg/injection, schedule: Q04DX003 (ip), vehicle: saline
[14] = dose: 100.0 mg/kg/injection, schedule: Q04DX003 (ip), vehicle: Klucel (hydroxypropylcellulose) (HPC)
[15] = dose: 200.0 mg/kg/injection, schedule: Q04DX003 (ip), vehicle: Klucel (hydroxypropylcellulose) (HPC)
[16] = dose: 400.0 mg/kg/injection, schedule: Q04DX003 (ip), vehicle: Klucel (hydroxypropylcellulose) (HPC)
[17] = dose: 400.0 mg/kg/injection, schedule: Q04DX003 (ip), vehicle: saline
[18] = dose: 50.0 mg/kg/injection, schedule: Q01DX001 (ip), vehicle: saline
[19] = dose: 100.0 mg/kg/injection, schedule: Q01DX001 (ip), vehicle: saline
[20] = dose: 200.0 mg/kg/injection, schedule: Q01DX001 (ip), vehicle: saline
[21] = dose: 400.0 mg/kg/injection, schedule: Q01DX001 (ip), vehicle: saline

Measured: T/C

O=[N+]([O-])c1ccc(Oc2ccc(S(=O)(=O)c3ccc(Oc4ccc([N+](=O)[O-])cc4)c([N+](=O)[O-])c3)cc2[N+](=O)[O-])cc1
inactive: dose: 100.0 mg/kg/injection, schedule: Q01DX005 (ip), vehicle: Klucel (hydroxypropylcellulose) (HPC) 101 % of control | [1] 102 % of control | [2] 110 % of control | dose: 200.0 mg/kg/injection, schedule: Q01DX005 (ip), vehicle: Klucel (hydroxypropylcellulose) (HPC) 97 % of control | [3] 102 % of control | [4] 96 % of control | dose: 400.0 mg/kg/injection, schedule: Q01DX005 (ip), vehicle: Klucel (hydroxypropylcellulose) (HPC) 90 % of control | [5] 98 % of control | [6] 100 % of control

CCOC(=O)C(=O)C1CCCC1=O (centres undefined)
inactive: [7] 102 % of control | [8] 92 % of control | dose: 200.0 mg/kg/injection, schedule: Q01DX009 (ip), vehicle: saline with Tween-80 98 % of control | [9] 100 % of control | dose: 400.0 mg/kg/injection, schedule: Q01DX009 (ip), vehicle: saline with Tween-80 96 % of control | [10] 94 % of control

OCn1nc(Cl)c2cc(Cl)ccc21
inactive: dose: 100.0 mg/kg/injection, schedule: Q01DX001 (ip), vehicle: carboxymethylcellulose (CMC) 103 % of control | dose: 200.0 mg/kg/injection, schedule: Q01DX001 (ip), vehicle: carboxymethylcellulose (CMC) 98 % of control | dose: 400.0 mg/kg/injection, schedule: Q01DX001 (ip), vehicle: carboxymethylcellulose (CMC) 100 % of control

[Cl][Cd][Cl].c1ccc(N=P(c2ccccc2)(c2ccccc2)c2ccccc2)cc1
inactive: dose: 9.38 mg/kg/injection, schedule: Q01DX001 (ip), vehicle: other 105 % of control

CCOP(=O)(OCC)Oc1c(Cl)c(Cl)c(Cl)c(Cl)c1Cl
inactive: [2] 104 % of control | [4] 100 % of control | [6] 107 % of control

CCN(CC)CCCCN(C)c1ccccc1
inactive: dose: 12.5 mg/kg/injection, schedule: Q01DX009 (ip), vehicle: saline with Tween-80 89 % of control | dose: 12.5 mg/kg/injection, schedule: Q04DX003 (ip), vehicle: acetone 93 % of control | dose: 25.0 mg/kg/injection, schedule: Q01DX009 (ip), vehicle: saline with Tween-80 97 % of control | dose: 25.0 mg/kg/injection, schedule: Q04DX003 (ip), vehicle: acetone 89 % of control | [11] 97 % of control | dose: 50.0 mg/kg/injection, schedule: Q04DX003 (ip), vehicle: acetone 98 % of control

CC1(C)COCN1CN1COCC1(C)C
inactive: [12] 101 % of control | [13] 95 % of control

Cc1ccc(S(=O)(=O)Nc2ccccc2OS(=O)(=O)c2ccc(C)cc2)cc1
inactive: dose: 100.0 mg/kg/injection, schedule: Q01DX001 (ip), vehicle: Klucel (hydroxypropylcellulose) (HPC) 95 % of control | [1] 106 % of control | [14] 101 % of control | dose: 200.0 mg/kg/injection, schedule: Q01DX001 (ip), vehicle: Klucel (hydroxypropylcellulose) (HPC) 89 % of control | [3] 108 % of control | [15] 100 % of control | dose: 400.0 mg/kg/injection, schedule: Q01DX001 (ip), vehicle: Klucel (hydroxypropylcellulose) (HPC) 93 % of control | [5] 106 % of control | [16] 97 % of control

CC(=O)Nc1ccc(C)c2ccccc12
inactive: dose: 50.0 mg/kg/injection, schedule: Q04DX003 (ip), vehicle: saline with Tween-80 116 % of control | [8] 100 % of control | [9] 100 % of control | [10] 96 % of control

O=C(O)C1CCCN1CCc1ccccc1 (centres undefined)
inactive: [12] 107 % of control | [13] 105 % of control | [17] 97 % of control

CCOC(=O)c1ccc(C)[n+]([O-])c1
inactive: [18] 96 % of control | [19] 98 % of control | [20] 100 % of control | [21] 93 % of control

CCOC(=O)CCC1(CCC(=O)OCC)c2ccccc2-c2ccccc21
inactive: [1] 97 % of control | [3] 100 % of control | [5] 94 % of control

CCOC(=O)C(C)[P+](c1ccccc1)(c1ccccc1)c1ccccc1 (centres undefined)
inactive: dose: 1.5 mg/kg/injection, schedule: Q01DX009 (ip), vehicle: saline 108 % of control | dose: 1.5 mg/kg/injection, schedule: Q04DX003 (ip), vehicle: saline 98 % of control | dose: 3.0 mg/kg/injection, schedule: Q01DX009 (ip), vehicle: saline 106 % of control | dose: 3.0 mg/kg/injection, schedule: Q04DX003 (ip), vehicle: saline 108 % of control | dose: 6.0 mg/kg/injection, schedule: Q04DX003 (ip), vehicle: saline 123 % of control

O=C1c2cccc(Cl)c2C(=O)c2c(Cl)cccc21
inactive: [2] 100 % of control and 91 % of control | [4] 94 % of control | [6] 102 % of control and 113 % of control

COC(=O)C(NC(=O)C(NC(=O)Cc1ccccc1)SCc1ccccc1)=C(C)C (centres undefined)
inactive: [12] 95 % of control | [13] 89 % of control

O=C(O)CCC(=O)Nc1ccc(S(=O)(=O)Nc2nccs2)cc1
inactive: dose: 3.5 mg/kg/injection, schedule: Q01DX009 (ip), vehicle: Klucel (hydroxypropylcellulose) (HPC) 93 % of control | dose: 5.3 mg/kg/injection, schedule: Q01DX009 (ip), vehicle: Klucel (hydroxypropylcellulose) (HPC) 93 % of control | dose: 8.0 mg/kg/injection, schedule: Q01DX009 (ip), vehicle: Klucel (hydroxypropylcellulose) (HPC) 91 % of control | [1] 94 % of control | [14] 101 % of control | [3] 98 % of control | [15] 103 % of control | [5] 94 % of control | [16] 97 % of control

O=C(O)c1cc(I)cc(I)c1I
inactive: [2] 105 % of control | [4] 88 % of control | [6] 102 % of control

Brc1ccc(C[n+]2ccccc2)cc1
inactive: dose: 12.5 mg/kg/injection, schedule: Q04DX003 (ip), vehicle: saline 98 % of control | dose: 18.75 mg/kg/injection, schedule: Q01DX009 (ip), vehicle: saline 93 % of control | dose: 25.0 mg/kg/injection, schedule: Q04DX003 (ip), vehicle: saline 97 % of control | dose: 37.5 mg/kg/injection, schedule: Q01DX009 (ip), vehicle: saline 91 % of control | dose: 50.0 mg/kg/injection, schedule: Q04DX003 (ip), vehicle: saline 105 % of control | dose: 75.0 mg/kg/injection, schedule: Q04DX003 (ip), vehicle: saline 92 % of control

C=CCn1c2c(c3ccccc31)CCC2
inactive: [11] 86 % of control | [7] 93 % of control

CCCCn1c(N)cc(=O)[nH]c1=S
inactive: [18] 100 % of control | [19] 93 % of control | [20] 106 % of control | [21] 100 % of control

CCC#CC#CCC
inactive: [19] 97 % of control | dose: 100.0 mg/kg/injection, schedule: Q01DX009 (ip), vehicle: saline 96 % of control | [20] 108 % of control | [21] 112 % of control

O=S(=O)(O)c1cc(O)c2ccc(NNC(O)c3ccc(Cl)c(Cl)c3)cc2c1 (centres undefined)
inactive: [12] 87 % of control | [13] 96 % of control | [17] 98 % of control
